Results taken from patent US10342796B2, “Acrylanilide derivative, preparation method, and applications thereof in pharmacy” (Ancureall Pharmaceutical (Shanghai) Co., Ltd., priority 2015, dated 2019).

Experiments:
[1] = test system: HER2/ErbB2 amplified cell line N87; test: In vivo tumor growth inhibition, xenograft; parameters: species or system Bab/c nude mice; details: Mus musculus, po, 456 h, 25 mg/kg intragastric once daily, day 19, read-out: TGI (%)
Text: (§1) Tumor xenograft models of immunodeficient mice are an effective tool to test the antitumor activity of the compound in vivo. Generally, the effectiveness of human tumor cell xenograft is positively correlated with the clinical treatment of human tumor. Bab/c immunodeficient mouse is one of the most commonly used xenograft animals with human tumor cells. In order to test whether the present compounds can inhibit the in vivo growth of the tumor cells expressing EGFR mutantion or HER2/ErbB2 overexpression, H1975, PC-9 and NCI-N87 cell lines were used in the experiments. When H1975, PC-9 and NCI-N87 cells were in growth logarithmic phase, they were digested with pancreatin. An appropriate amount of 1×RPMI1640 culture medium (serum-free) was added to stop digestion. The cells were collected to a 50 ml centrifuge tube (Corning), and centrifuged at 1700 rm for 3 min. The supernatant was discard, then the cells were suspended with 1×RPMI1640 culture medium and count the number. […] cells/mL was prepared and then placed on ice. 5˜10×10^6 (0.2 ml) cells were inoculated subcutaneously on the right side of the back of 6˜8 week old female Bab/c nude mice (about 20 g in weight). When the tumor average volume growed to 100˜200 mm^3, the mice were randomly divide into groups (3-6 mice per group), and marked by ear pierced tags and weighted. The test compounds and the reference compound (with a purity over 99% and individual impurity not higher than 0.2%) were formulated to emulsion suspension with CM (30% polyethylene glycol 400, 0.5% Tween-80 and 2.5% propylene glycol) respectively. Intragastric administration was continued once daily at a dosage of 25 mg/kg (0.1 ml/10 g mouse). The tumor was measured 3 times per week. When the average volume of the tumor in CM control group was up to 1500 mm^3 or after administration for 30 days, the experiment was ended.
(§2) The volume of tumor (V) was calculated as V=½*a*b^2 (a represents length of tumors, b represents width of tumors). Tumor growth inhibition (TGI) was calculated as: TGI (%)=100−(VT−VT0)/(VC−VC0)*100%; where VT0 and VT are the tumor volumes of the beginning and finish days of dosed groups; and VC0 and VC are the tumor volumes of the beginning and finish days for the control group, respectively.

[2] = test system: PC-9 tumor cells; test: In vivo tumor growth inhibition, xenograft; parameters: species or system Bab/c nude mice; details: Mus musculus, po, 456 h; 25 mg/kg intragastric once daily, day 19; read-out: TGI (%) PC-9
Text: as §1, §2

[3] = test system: H1975 tumor cells; test: In vivo tumor growth inhibition, xenograft; parameters: species or system Bab/c nude mice; details: Mus musculus, NCI-H1975, po, 456 h; 25 mg/kg intragastric once daily, day 19; read-out: TGI (%) H1975
Text: as §1, §2

[4] = test system: H1993 (Met amp); test: Growth inhibition GI50 in vitro (CCK8/MTT, 72 h); assay type: cell-based; details: Homo sapiens, NCI-H1993, H1993, EGFR wt
Experimental: (§3) Human gastric cancer cell line MKN-45 (ATCC) and NSCLC cell line NCI-H1993 (ATCC) were cultured with 1×RPMI1640 complete medium which was supplement with 10% FBS, respectively.
(§4) The suspension cells were collected by centrifugation. The supernatant was discard and the cell pellet was resuspended and counted. Different cell concentrations (5˜10×10^4 cells/mL) were prepared according to the growth cycle of each cell line and then seeded on a 96-well plate (Corning), 100 μL/well. The cells were incubated over night at 37° C., 5% CO2. The compounds were added to the cells on the second day with 2 wells in parallel. The final concentration of organic solvent shall not exceed 1%. The cells were continually incubated for 72 h, and then subjected to MTT assay.
(§5) The present compounds and the reference compounds were dissolved with DMSO (Sigma), respectively. […] The storage concentration of compounds was 10 mM and kept at −20° C. They were diluted by 2 times or 10 times with serial dilution before using.
(§6) Dojindo CCK8 reagent kit was used as MTT assay. […] FC meter was used as microplate reader.
(§7) Adherent cell culture medium was discard and immediately replaced with fresh prepared medium which contains 10% CCK8 reagent (100 μL/well). For the suspension cells, CCK8 was directly added to 10% of the final concentration. The cells were continually incubated for 1˜4 h. When the color of control wells turned to dark yellow, the absorption value was measured at OD450 nm. The cell growth rate was calculated according to the following formula: cell growth rate (%)=100*(T−T0)/(C−T0), T=optical density of drug treatment cell well—optical density of blank control well; T0=optical density of cell well before drug treatment—optical density of blank control well; C=optical density of cell well of solvent control group—optical density of blank control well. […] The experiment was independently repeated 1˜3 times, and subject to biological statistical analysis.
(§8) Growth inhibition assay was conducted in the cell lines shown Table 14 with the different oncogene mutations. Each compound started at 1000 nM as an initial concentration and was diluted by 2 times with serial dilution to 0.03 nM.

[5] = test system: MKN-45 (Met amp); test: Growth inhibition GI50 in vitro (CCK8/MTT, 72 h); assay type: cell-based; details: Homo sapiens, MKN-45, EGFR wt
Experimental: as §3, §4, §5, §6, §7, §8

[6] = test system: SH-SY5Y (ALK F1174L); test: Growth inhibition GI50 in vitro (CCK8/MTT, 72 h); assay type: cell-based; details: Homo sapiens, EGFR wt
Experimental: Neuroblastoma cell line SH-SY5Y (ALK F1174L positive) (Shanghai Cell Bank of Chinese Academy of Sciences) was cultured with MEM complete medium (supplement with 10% FBS, 1% NEAA, 1% double-antibiotics and 1 mM of sodium pyruvate).
as §4, §5, §6, §7, §8

[7] = test system: SNU-16 (FGFR2 amp); test: Growth inhibition GI50 in vitro (CCK8/MTT, 72 h); assay type: cell-based; details: Homo sapiens, SNU-16, EGFR wt
Experimental: (§9) Human NSCLC cell line NCI-H1581(ATCC) contains FGFR1 gene amplification and high expression. Human gastric cancer cell line SNU-16(ATCC) contains FGFR2 gene amplification and high expression. They were cultured with 1×RPMI1640 complete medium (10% FBS), respectively.
as §4, §5, §6, §7, §8

[8] = test system: H1581 (FGFR1 amp); test: Growth inhibition GI50 in vitro (CCK8/MTT, 72 h); assay type: cell-based; details: Homo sapiens, NCI-H1581, H1581, EGFR wt
Experimental: as §9, §4, §5, §6, §7, §8

[9] = test system: H2228 (EML4-ALK); test: Growth inhibition GI50 in vitro (CCK8/MTT, 72 h); assay type: cell-based; details: Homo sapiens, NCI-H2228, H2228, EGFR wt
[10] = test system: Karpas-299 (NPM-ALK); test: Growth inhibition GI50 in vitro (CCK8/MTT, 72 h); assay type: cell-based; details: Homo sapiens, Karpas-299, EGFR wt
[11] = test system: MV4-11 (FLT3-ITD); test: Growth inhibition GI50 in vitro (CCK8/MTT, 72 h); assay type: cell-based, human; details: for GI50: Homo sapiens, MV4-11, FLT3-ITD; for inhibition effects: FLT3-ITD+ MV4-11 cells
Experimental: FLT3 is a kind of PTK and about 20-30% of patients with acute myelocytic leukemia (AML) in clinic express FLT3-ITD mutation protein. FLT3-ITD positive cell line MV4-11 was cultured with 1×RPMI1640 complete medium (supplement with 10% FBS).
as §4, §5, §6, §7, §8

Row | SMILES | inhibition in vivo at 25 mg/kg [1] [%] | inhibition in vivo at 25 mg/kg [2] [%] | inhibition in vivo at 25 mg/kg [3] [%] | GI50 [4] [nM] | GI50 [5] [nM] | GI50 [6] [nM] | GI50 [7] [nM] | GI50 [8] [nM] | GI50 [9] [nM] | GI50 [10] [nM] | GI50 [11] [nM] | inhibition effects [11]
1 | C=CC(=O)Nc1cc(Nc2cc(Nc3ccc(OCC4CCOCC4)c(Cl)c3)ncn2)c(OC)cc1N(C)CCN(C)C [Compound 216, N-(5-(6-(3-chloro-4-(tetrahydropyran-4-yl-methoxyl)-phenylamino)-pyrimidin-4-ylamino)-2-((2-dimethylaminoethyl)-methyl-amino)-4-methoxyphenyl)-acrylamide] | 97.6 |  |  |  |  |  |  |  |  |  |  | 
2 | C=CC(=O)Nc1cc(Nc2nccc(-n3ccc4c(OCCOC)cccc43)n2)c(OC)cc1N(C)CCN(C)C [Compound 205, N-(5-(4-(4-(2-methoxyl-ethoxyl)-1H-indol-1-yl)-pyrimidin-2-ylamino)-2-(2-(dimethylamino-ethyl)-methyl-amino)-4-methoxyl-phenyl)-acrylamide] |  | 96.5 | 99.5 |  |  |  |  |  |  |  |  | 
3 | C=CC(=O)Nc1cc(Nc2nccc(Nc3cccc(Cl)c3)n2)c(OC)cc1N(C)CCN(C)C [Compound 2, N-(5-(4-(3-chloro-phenylamino)-pyrimidin-2-ylamino)-2-(2-(dimethylamino-ethyl)-methyl-amino)-4-methoxyl-phenyl)-acrylamide] |  |  |  | > 1000 | > 1000 | > 1000 | > 1000 | > 1000 | > 500 | 500 | > 1000 | 
4 | C=CC(=O)Nc1cc(Nc2ncnc(Nc3cccc(Br)c3)n2)c(OC)cc1N1CCC(N2CCCC2)CC1 [Compound 118] |  |  |  |  | 465 |  | > 1000 | > 1000 | > 500 | 500 | 156 | moderate inhibition effects
5 | C=CC(=O)Nc1cc(Nc2cc(Nc3cc(OC)c(Cl)cc3Cl)ncn2)c(OC)cc1N(C)CCN(C)C [Compound 136, N-(5-(6-(2,4-dichloro-5-methoxyl-phenylamino)-pyrimidin-4-ylamino)-2-((2-dimethylamino-ethyl)-methyl-amino)-4-methoxyl-phenyl)-acrylamide] | 96.7 |  |  |  |  |  |  |  |  |  |  | 
6 | C=CC(=O)Nc1cc(Nc2nccc(-n3cnc4ccccc43)n2)c(OC)cc1N(C)CCN(C)C [Compound 106] |  |  |  | > 1000 | > 1000 | > 1000 | > 1000 | > 1000 | > 500 | > 1000 | > 1000 | 
7 | C=CC(=O)Nc1cc(Nc2ncc(Cl)c(Nc3ccc(OCc4ccccn4)c(Cl)c3)n2)c(OC)cc1N(C)CCN(C)C [Compound 19, N-(5-(5-chloro-4-(3-chloro-4-(pyridin-2-methoxyl)phenylamino)-pyrimidin-2-ylamino)-2-((2-(dimethylamino)ethyl)(methyl)amino)-4-methoxyl-phenyl)-acrylamide] |  |  |  | > 1000 | 500 | > 1000 | > 1000 | > 1000 | > 500 | 500 | > 1000 | 
8 | C=CC(=O)Nc1cc(Nc2cc(Nc3ccc(F)c(Cl)c3)ncn2)c(OC)cc1N(C)CCN(C)C [Compound 140, N-(5-(6-(3-chloro-4-fluoro-phenylamino)-pyrimidin-4-ylamino)-2-((2-dimethylamino-ethyl)-methyl-amino)-4-methoxyl-phenyl)-acrylamide] |  | 97.9 | 98.4 | > 1000 | > 1000 | > 1000 | > 1000 | > 1000 | > 500 | > 1000 | > 1000 | moderate inhibition effects
9 | C=CC(=O)Nc1cc(Nc2nccc(-c3cn(C)c4ccccc34)n2)c(OC)cc1N(C)CCN(C)C [AZD9291, reference compound] |  | 97.2 | 98.4 | > 1000 | > 1000 | > 1000 | > 1000 | > 1000 | > 500 | > 1000 | > 1000 | 
10 | C=CC(=O)Nc1cc(Nc2nccc(Nc3ccc(OCc4ccccn4)c(Cl)c3)n2)c(OC)cc1N(C)CCN(C)C [Compound 18, N-(5-(4-(3-chloro-4-(pyridin-2-methoxyl)phenylamino)pyrimidin-2-ylamino)-2-((2-(dimethylamino)ethyl)(methyl)amino)-4-methoxyl-phenyl)-acrylamide] |  | 98.3 | 96.7 | > 1000 | > 1000 | > 1000 | > 1000 | > 1000 | > 500 | > 1000 | > 1000 | 
11 | C=CC(=O)Nc1cc(Nc2ncnc(Nc3cccc(F)c3)n2)c(OC)cc1N(C)CCN(C)C [Compound 114, N-(5-(4-(3-fluoro-phenylamino)-[1,3,5]triazin-2-ylamino)-2-((2-dimethylamino-ethyl)-methyl-amino)-4-methoxyl-phenyl)-acrylamide] |  |  |  | > 1000 | 465 | > 1000 | > 1000 | > 1000 | > 500 | > 1000 | 124 | moderate inhibition effects
12 | C=CC(=O)Nc1cc(Nc2cc(Nc3ccc(F)c(Cl)c3)ncn2)c(OC)cc1N1CCN(C2CCN(C)CC2)CC1 [Compound 147, N-(5-(6-(3-chloro-4-fluoro-phenylamino)-pyrimidin-4-ylamino)-4-methoxyl-2-(4-(1-methylpiperidin-4-yl)-piperazin-1-yl)-phenyl)-acrylamide] |  |  |  | > 1000 | > 1000 | > 1000 | > 1000 | > 1000 | > 500 | > 1000 | > 1000 | 
